Reference: article PMC9919490, “Synthesis and Biological Evaluation of Novel Dispiro-Indolinones with Anticancer Activity” (Molecules, 2023)

How the values were obtained:
Assay type in all cases: cell-based
Conditions in all cases: 48 h
HCT^−/− cells = experiment: MTT cytotoxicity assay, HCT^−/− (p53 neg)
Method: (§1) The synthesized compounds were tested for their ability to block the proliferation of the selected model cell lines: LNCaP (p53+), PC3 (p53-), HCT^wt (p53+), and HCT^−/− (p53-) cells. The assay was carried out using the standard MTT (3-(4,5-dimethylthiazol-2-yl)2,5-diphenyl tetrazolium bromide) assay based on the modified approach reported by Ferrari and colleagues. […] Differences in IC50 values against these cell lines were used to assess the selectivity of the compounds.
(§2) Model cell lines were purchased from the in stock collection of the N.N. Blokhin Russian Cancer Research Center (RAMS). Cells were accurately maintained in the recommended media, supplemented with 10% heat-inactivated FBS (Invitrogen) and 2 mmol/L L-glutamine (Invitrogen).
(§3) First, 4000 cells per well were plated out in 140 µL of DMEM (with 10% FBS) in 96-well plates and incubated in 5% CO2 for 24 h at 37 °C without treatment. […] The cells were treated for 48 h with […] (eight dilutions) concentrations of the substances (each in triplicate) or doxorubicin (0.3 nM–600 nM, eight dilutions) as a control substance. After the incubation, 15 µL of MTT solution in PBS (5 mg/mL) was added, and the cells were incubated for 2 h, followed by removal of the media and addition of 120 µL of DMSO. […] Cell survival rates were determined by the comparison of optical density with the corresponding untreated control cell culture. Dose-dependent curves and the corresponding IC50 values were calculated using “GraphPad Prism 6” software (GraphPad Software, Inc., San Diego, CA, USA).

PC3 cells = experiment: MTT cytotoxicity assay, PC3 (p53 neg)
Method: as §1, §2, §3

HCT^wt cells = experiment: MTT cytotoxicity assay, HCT^wt (p53 pos)
Method: as §1, §2, §3

LNCaP cells = experiment: MTT cytotoxicity assay, LNCaP (p53 pos)
Method: as §1, §2, §3

SMILES	IC50 (HCT^−/− cells)	IC50 (PC3 cells)	IC50 (HCT^wt cells)	IC50 (LNCaP cells)
CCOc1ccc(N2C(=O)[C@]3(NC2=S)[C@@H](c2ccc(F)cc2)CN(C)[C@@]32C(=O)Nc3ccccc32)cc1 (racemic) [Compound 30]	> 100 µM	> 100 µM	> 100 µM	> 100 µM
CCOc1ccc(N2C(=O)[C@]3(NC2=S)[C@@H](c2ccc(F)cc2)CN(C)[C@@]32C(=O)Nc3ccc(Br)cc32)cc1 (racemic) [Compound 31]	> 100 µM	> 100 µM	> 100 µM	> 100 µM
COc1ccc(N2C(=O)[C@]3(NC2=S)[C@@H](c2cccc(Cl)c2)CN(C)[C@@]32C(=O)Nc3ccccc32)cc1 (racemic) [Compound 32]	> 100 µM	> 100 µM	> 100 µM	> 100 µM
COc1ccc(N2C(=O)[C@]3(NC2=S)[C@@H](c2cccc(Cl)c2)CN(C)[C@@]32C(=O)Nc3ccc(Br)cc32)cc1 (racemic) [Compound 33]	> 100 µM	> 100 µM	> 100 µM	> 100 µM
C#CCOc1ccc([C@H]2CN(C)[C@@]3(C(=O)Nc4ccc(Br)cc43)[C@@]23NC(=S)N(c2ccc(OCC)cc2)C3=O)cc1 (racemic) [Compound 34]	> 100 µM	> 100 µM	> 100 µM	> 100 µM
CN1C[C@H](c2ccccc2Cl)[C@]2(NC(=S)N(c3ccc(Cl)cc3)C2=O)[C@]12C(=O)Nc1ccc(Cl)cc12 (racemic) [Compound 36]	> 100 µM	> 100 µM	> 100 µM	> 100 µM
CN1C[C@H](c2ccc(Cl)cc2)[C@]2(NC(=S)N(c3ccc(Cl)cc3)C2=O)[C@]12C(=O)Nc1ccc(Cl)cc12 (racemic) [Compound 37]	> 100 µM	> 100 µM	> 100 µM	> 100 µM
CN1C[C@H](c2ccc(F)cc2)[C@]2(NC(=S)N(c3ccc(Cl)cc3)C2=O)[C@]12C(=O)Nc1ccccc12 (racemic) [Compound 38]	> 100 µM	> 100 µM	> 100 µM	> 100 µM
CN1C[C@H](c2ccc(Cl)cc2)[C@]2(NC(=S)N(c3ccc(F)cc3)C2=O)[C@]12C(=O)Nc1ccc(Br)cc12 (racemic) [Compound 40]	> 100 µM	> 100 µM	> 100 µM	> 100 µM
COc1ccc([C@H]2CN(C)[C@@]3(C(=O)Nc4ccccc43)[C@@]23NC(=S)N(c2ccc(F)c(Cl)c2)C3=O)cc1 (racemic) [Compound 41]	> 100 µM	> 100 µM	> 100 µM	> 100 µM
CN1C[C@H](c2ccc(Cl)cc2)[C@]2(NC(=S)N(c3ccc(F)c(Cl)c3)C2=O)[C@]12C(=O)Nc1ccc(Cl)cc12 (racemic) [Compound 42]	> 100 µM	> 100 µM	> 100 µM	> 100 µM
CN1C[C@H](c2cccc(Cl)c2)[C@]2(NC(=S)N(c3ccc(F)c(Cl)c3)C2=O)[C@]12C(=O)Nc1ccc(Cl)cc12 (racemic) [Compound 43]	9.5 ± 4.9 µM	5.7 ± 2.6 µM	9.3 ± 4.6 µM	3.2 ± 1.6 µM
COc1ccc([C@H]2CN(C)[C@@]3(C(=O)Nc4ccccc43)[C@@]23NC(=S)N(c2ccc(F)c(Cl)c2)C3=O)cc1OC (racemic) [Compound 44]	> 100 µM	10.2 ± 2.3 µM	35 ± 16.2 µM	8.6 ± 1.8 µM
CCc1ccc([C@H]2CN(C)[C@@]3(C(=O)Nc4ccccc43)[C@@]23NC(=S)N(c2ccc(F)c(Cl)c2)C3=O)cc1 (racemic) [Compound 46]	6.5 ± 3.6 µM	> 100 µM	6.3 ± 2.5 µM	> 100 µM
CN1C[C@H](c2ccc(Cl)cc2)[C@]2(NC(=S)N(c3ccc(O)cc3)C2=O)[C@]12C(=O)Nc1ccc(Cl)cc12 (racemic) [Compound 52]	> 100 µM	> 100 µM	> 100 µM	> 100 µM
CN1C[C@H](c2ccccc2Cl)[C@]2(NC(=S)N(c3ccc(O)cc3)C2=O)[C@]12C(=O)Nc1ccccc12 (racemic) [Compound 53]	> 100 µM	> 100 µM	> 100 µM	> 100 µM
